# Values quoted from earlier work in patent US5607673A, “Purified extract of uvaria brevistipitata and a process for obtaining the purified extract therefor” (C.S.S.A.H.A., Inc., priority 1995, dated 1997).
# Assays:
# [1] = tested on: NADH-Ubiquinone Reductase (Complex I); conditions: Degli et al. 1994; for Complex I inhibitory constant and protein dependence of titer vs classical inhibitors: bovine submitochondrial particles
# [2] = tested on: P-388 mouse lymphocytic leukemia cells; conditions: Lumonadio et al. 1991
# Colon-38 adenocarcinoma = conditions: Lumonadio et al. 1991
# [3] = tested on: multi-drug resistant K 1 strain of plasmodium falciparum; conditions: in vitro; Nkunya et al. 1991
# [4] = tested on: P-388 lymphocytic leukemia; conditions: in vitro; Jolad et al. 1982
# [5] = U.S. Pat. No. 5,229,419
# tumor = conditions: Cole et al. 1976
molecule,measurement,setting,value
CCCCCC[C@H](O)CCC[C@H](O)[C@H]1CC[C@H]([C@H]2CC[C@H]([C@H](O)CCCCCCCCCCCCC3=C[C@H](C)OC3=O)O2)O1 [Squamocin],Complex I inhibitory constant vs the classical inhibitor,[1],lower than that of the classical inhibitor
15-desacetylundulatone,activity against P-388 cells,[2],active
same,activity against Colon-38 adenocarcinoma,Colon-38 adenocarcinoma,active
COc1cc(O)c(Cc2ccccc2O)c(O)c1C(=O)CCc1ccccc1 [Uvaretin],anti-malarial activity,[3],most active
CCCCCCCCCC[C@H](O)[C@H]1CC[C@H]([C@H]2CC[C@H]([C@H](O)CCCCCCCCCCC(O)CC3=C[C@H](C)OC3=O)O2)O1 (stereo partly shown) [Rolliniastatin-2],Complex I inhibitory constant and protein dependence of titer vs classical inhibitors,[1],more powerful
CCCCCCCCCC[C@H](O)[C@H]1CC[C@@H]([C@@H]2CC[C@H]([C@H](O)CCCCCCCCCC[C@@H](O)CC3=C[C@H](C)OC3=O)O2)O1 [Rolliniastatin-1],Complex I inhibitory constant and protein dependence of titer vs classical inhibitors,[1],more powerful
Otivarin,Complex I inhibitory constant vs the classical inhibitor,[1],lower than that of the classical inhibitor
COc1c(Cc2ccccc2O)c(O)c(Cc2ccccc2O)c(O)c1C(=O)CCc1ccccc1 [Diuveretin],anti-malarial activity,[3],most active
CCCCCCCCCC[C@H](OC(C)=O)[C@H]1CC[C@H]([C@H]2CC[C@H]([C@H](O)CCCCCCCCCCCCC3=C[C@H](C)OC3=O)O2)O1 [Uvaricin],activity against P-388 lymphocytic leukemia,[4],demonstrated an in vitro activity
CCCCCCCCCC[C@H](O)[C@H]1CC[C@H]([C@H]2CC[C@H]([C@H](O)CCCCCCCCCC[C@@H]3CC(CC(C)=O)C(=O)O3)O2)O1 (stereo partly shown) [bullatacinone],antitumor and pesticidal activity,[5],exhibit antitumor and pesticidal activity
"CC(C)=CC(O)C(O)C(C)=CCCC(C)=CCc1c[nH]c2ccccc12 (stereo not shown) [8',9'-dihydroxy-3-farnesylindole]",anti-malarial activity,[3],most active
CCCCCCCCCC[C@H](O)[C@H]1CC[C@H]([C@H]2CC[C@H]([C@H](O)CCCCCCCCCC[C@@H](O)CC3=C[C@H](C)OC3=O)O2)O1 [bullatacin],antitumor and pesticidal activity,[5],exhibit antitumor and pesticidal activity
COc1cc(O)c(Cc2ccccc2O)c(O)c1C(=O)CCc1ccccc1 [Uvaratin],anti-tumor activity,tumor,shown to have anti-tumor activity
